Test results taken from paper PMC6277434, “Discovery of a potent HMG-CoA reductase degrader that eliminates statin-induced reductase accumulation and lowers cholesterol” (Nature Communications, 2018).
Where “and” joins values, the source holds several entries; their conditions need not be identical. Equal entries are not always repeated.

Tests used:
HMGCR = target: T1, HMGCR (Cricetulus griseus, UniProt P00347); test: Immunoblotting of HMGCR in SRD-15 (Insig-1 and Insig-2-deficient) cells; format: cell-based, Chinese hamster; settings: SRD-15 cells
T1 construct: endogenous in cells; host or cells: CHO-7, CHG, SRD-13A, SRD-15
T1 sequence (P00347 1-887): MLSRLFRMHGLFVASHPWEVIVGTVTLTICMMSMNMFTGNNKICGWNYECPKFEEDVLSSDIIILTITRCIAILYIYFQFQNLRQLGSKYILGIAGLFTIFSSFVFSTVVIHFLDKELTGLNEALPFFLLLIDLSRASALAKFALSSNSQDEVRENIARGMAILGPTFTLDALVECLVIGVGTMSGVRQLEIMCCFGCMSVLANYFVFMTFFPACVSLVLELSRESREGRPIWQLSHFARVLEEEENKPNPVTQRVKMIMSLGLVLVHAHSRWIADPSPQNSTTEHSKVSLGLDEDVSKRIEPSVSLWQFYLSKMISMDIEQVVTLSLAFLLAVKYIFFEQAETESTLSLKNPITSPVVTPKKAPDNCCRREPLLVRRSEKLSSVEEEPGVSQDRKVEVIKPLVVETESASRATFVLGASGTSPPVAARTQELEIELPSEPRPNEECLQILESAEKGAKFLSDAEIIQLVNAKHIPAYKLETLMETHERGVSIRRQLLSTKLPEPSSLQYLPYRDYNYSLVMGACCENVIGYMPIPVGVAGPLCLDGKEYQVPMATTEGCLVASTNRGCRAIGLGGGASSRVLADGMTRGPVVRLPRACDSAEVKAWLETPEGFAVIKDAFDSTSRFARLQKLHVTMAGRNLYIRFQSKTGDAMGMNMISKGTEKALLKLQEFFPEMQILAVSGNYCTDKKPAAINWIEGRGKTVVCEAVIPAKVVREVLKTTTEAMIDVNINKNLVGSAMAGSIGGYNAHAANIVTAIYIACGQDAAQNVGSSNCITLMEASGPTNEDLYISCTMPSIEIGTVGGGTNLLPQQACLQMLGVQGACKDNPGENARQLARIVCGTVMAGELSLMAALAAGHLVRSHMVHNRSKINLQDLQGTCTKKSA
Procedure: CHO-7 (Chinese hamster ovary cell, a clone of CHO-K1 cell line selected for growth in LPDS) and Huh7 (a human hepatocellular carcinoma cell line), SRD-13A (a Scap-deficient CHO-7 cell line) and SRD-15 (an Insig-1 and Insig-2-deficient CHO-7 cell line) were generous gifts from Russell Debose-Boyd at UT Southwestern Medical Center, USA. All cells were grown in a monolayer at 37 °C with 5% CO2. Huh7 cells were maintained in medium A supplemented with 10% FBS. CHO-7 and SRD-15 cells were maintained in medium B supplemented with 5% FBS. SRD-13A cells were maintained in medium B with 5% FBS, 5 μg ml^−1 cholesterol, 1 mM sodium mevalonate, 10 μM sodium oleate. No cell lines used in this study were found in the database of commonly misidentified cell lines that is maintained by ICLAC and NCBI Biosample. […]
Cells were harvested and homogenized in the RIPA buffer (50 mM Tris-HCl, pH 8.0, 150 mM NaCl, 2 mM MgCl2, 1.5% NP-40, 0.1% SDS, and 0.5% sodium deoxycholate) supplemented with protease cocktail inhibitor, 10 μM MG-132, 10 μg ml^−1 leupeptin and 1 mM phenylmethylsulfonyl fluoride. The protein concentrations of lysates were determined using BCA method (Beyotime). […] Western blot images were captured by Amersham Imager 600 (GE Healthcare), and integrated optical intensities of each band were quantified by Image-Pro Plus 6 software (Media Cybernetics). […]

Hmgcr mRNA [1] = test: RT-qPCR of hepatic Hmgcr mRNA of gavaged mice; format: in vivo; settings: C57BL/6J mice, 60 mg/kg/day gavage once daily 7 days
Procedure: Cells were treated as described in corresponding figure legends, then total RNA was extracted from cells or mouse livers using TRI Reagent ([…], Sigma-Aldrich). Equal amounts of RNA from cells or mice receiving the same treatment were pooled were used for cDNA synthesis with oligo dT and reverse transcriptase MLV (Promega). Gene expression was analyzed by quantitative real-time PCR on a Stratagene […] Systems. The primers used were listed in Supplementary Tables 2-4. Male C57BL/6 mice (8-week-old) were obtained from Shanghai Laboratory Animal Company (SLAC) (Shanghai, China). Male Ldlr^-/- mice (8-week-old) were obtained from Nanjing Biomedical Research Institute of Nanjing University (Nanjing, China). […] Mice were maintained in a pathogen-free environment and kept on a 12-h light/dark schedule. Mice were gavaged as described in figure legends with saline containing 0.5% methyl cellulose and 0.5% Tween-80. All mice were used in accordance with the guidelines approved by the Institutional Animal Care and Use Committee of Wuhan University.

Hmgcr mRNA [2] = test: RT-qPCR of Hmgcr mRNA in CHO-7 cells; format: cell-based, Chinese hamster; settings: DMSO = 1; for HMGCR mRNA level, mean: 16 h
Procedure: (§1) Cells were treated as described in corresponding figure legends, then total RNA was extracted from cells or mouse livers using TRI Reagent (T9424, Sigma-Aldrich). Equal amounts of RNA from cells or mice receiving the same treatment were pooled were used for cDNA synthesis with oligo dT and reverse transcriptase MLV (Promega). Gene expression was analyzed by quantitative real-time PCR on a Stratagene Mx30005PTM Q-PCR Systems. The primers used were listed in Supplementary Tables 2–4.

Hmgcr mRNA [3] = test: RT-qPCR of Hmgcr mRNA in SRD-13A cells; format: cell-based, Chinese hamster; design: HMGCR mRNA level, mean: scale not given here; settings: for HMGCR mRNA level, mean: SRD-13A, 16 h
Procedure: as §1

Structure (SMILES): C=CCC(O)(CC=C)CCCC(C)C1CCC2C3C(O)C=C4C(C)(C)C(O)CCC4(C)C3CCC12C (stereo not drawn) [Cmpd 81]
- Cmpd 81-induced disappearance of endogenous HMGCR in cells lacking Insig-1 and Insig-2 (HMGCR): completely abolished

Structure (SMILES): CC[C@H](C)C(=O)O[C@H]1C[C@@H](C)C=C2C=C[C@H](C)[C@H](CC[C@@H]3C[C@@H](O)CC(=O)O3)[C@H]21 [Lovastatin, lovastatin]
- hepatic Hmgcr mRNA level, mean (Hmgcr mRNA [1]; vehicle = 1): 2.5 ± 0.2 fold and 2.537 fold
- hepatic Hmgcr mRNA level, single values (Hmgcr mRNA [1]; vehicle = 1): 2.5 and 2.78 and 2.33
- hepatic Hmgcr mRNA level, mean (Hmgcr mRNA [1]; vehicle = 1, listed as lovastatin): 2.5 fold
- HMGCR mRNA level, mean (Hmgcr mRNA [2]; CHO-7, lovastatin 0.001 uM): 1.196
- HMGCR mRNA level, mean (Hmgcr mRNA [2]; CHO-7, lovastatin 0.003 uM): 1.51
- HMGCR mRNA level, mean (Hmgcr mRNA [2]; CHO-7, lovastatin 0.01 uM): 1.897
- HMGCR mRNA level, mean (Hmgcr mRNA [2]; CHO-7, lovastatin 0.03 uM): 2.523
- HMGCR mRNA level, mean (Hmgcr mRNA [2]; CHO-7, lovastatin 0.1 uM): 2.959
- HMGCR mRNA level, mean (Hmgcr mRNA [2]; CHO-7, lovastatin 0.3 uM): 3.447
- HMGCR mRNA level, mean (Hmgcr mRNA [2]; CHO-7, lovastatin 1 uM): 3.688
- HMGCR mRNA level, mean (Hmgcr mRNA [2]; CHO-7, lovastatin 3 uM): 3.602
- HMGCR mRNA level, mean (Hmgcr mRNA [2]; CHO-7, lovastatin 10 uM): 3.663
- increase of Hmgcr mRNA abundance (Hmgcr mRNA [2]; CHO-7 cells, statin 16 h (lovastatin up to 10 μM)): 3.6 fold
- change in the amounts of Hmgcr mRNA (Hmgcr mRNA [3]; SRD-13A cells, lovastatin 16 h): no change
- HMGCR mRNA level, mean (Hmgcr mRNA [3]; lovastatin 0.001 uM): 1
- HMGCR mRNA level, mean (Hmgcr mRNA [3]; lovastatin 0.003 uM): 1.03
- HMGCR mRNA level, mean (Hmgcr mRNA [3]; lovastatin 0.01 uM): 1.0471
- HMGCR mRNA level, mean (Hmgcr mRNA [3]; lovastatin 0.03 uM): 1.185
- HMGCR mRNA level, mean (Hmgcr mRNA [3]; lovastatin 0.1 uM): 1.052
- HMGCR mRNA level, mean (Hmgcr mRNA [3]; lovastatin 0.3 uM): 0.9958
- HMGCR mRNA level, mean (Hmgcr mRNA [3]; lovastatin 1 uM): 1.197
- HMGCR mRNA level, mean (Hmgcr mRNA [3]; lovastatin 3 uM): 1.009
- HMGCR mRNA level, mean (Hmgcr mRNA [3]; lovastatin 10 uM): 1.04
